Reference: patent US6352958B1, “Cycloimido-substituted benzofused heterocyclic herbicides” (FMC Corporation, priority 1997, dated 2002)

What was measured:
Format in all cases: in vivo
[1] = test system: field corn (Zea mays var. Pioneer 3732); experiment: Postemergence herbicidal activity, corn; conditions: rate of application 0.3 Kg/Ha, rated after 12-17 days
[2] = test system: green foxtail (Setaria viridis); experiment: Postemergence herbicidal activity, green foxtail; conditions: rate of application 0.3 Kg/Ha, rated after 12-17 days
[3] = test system: Johnsongrass (Sorghum halepense); experiment: Preemergence herbicidal activity, johnsongrass; conditions: Rate of Application 0.3 Kg/Ha, examined after 12-17 days
[4] = test system: field corn (Zea mays var. Pioneer 3732); experiment: Preemergence herbicidal activity, corn; conditions: Rate of Application 0.3 Kg/Ha, examined after 12-17 days
[5] = test system: common cocklebur (Xanthium strumarium L.); experiment: Postemergence herbicidal activity, cocklebur; conditions: rate of application 0.3 Kg/Ha, rated after 12-17 days
[6] = test system: soybean (Glycine max var. Winchester); experiment: Preemergence herbicidal activity, soybean; conditions: Rate of Application 0.3 Kg/Ha, examined after 12-17 days
[7] = test system: common chickweed (Stellaria media); experiment: Postemergence herbicidal activity, chickweed; conditions: rate of application 0.3 Kg/Ha, rated after 12-17 days
[8] = test system: velvetleaf (Abutilon theophrasti); experiment: Postemergence herbicidal activity, velvetleaf; conditions: rate of application 0.3 Kg/Ha, rated after 12-17 days
[9] = test system: velvetleaf (Abutilon theophrasti); experiment: Preemergence herbicidal activity, velvetleaf; conditions: Rate of Application 0.3 Kg/Ha, examined after 12-17 days
[10] = test system: green foxtail (Setaria viridis); experiment: Preemergence herbicidal activity, green foxtail; conditions: Rate of Application 0.3 Kg/Ha, examined after 12-17 days
[11] = test system: blackgrass (Aloepecurus myosuroides); experiment: Postemergence herbicidal activity, blackgrass; conditions: rate of application 0.3 Kg/Ha, rated after 12-17 days
[12] = test system: morningglory (Ipomea lacunosa or Ipomea hederacea); experiment: Preemergence herbicidal activity, morningglory; conditions: Rate of Application 0.3 Kg/Ha, examined after 12-17 days
[13] = test system: wheat (Triticum aestivum var. Lew); experiment: Preemergence herbicidal activity, wheat; conditions: Rate of Application 0.3 Kg/Ha, examined after 12-17 days
[14] = test system: soybean (Glycine max var. Winchester); experiment: Postemergence herbicidal activity, soybean; conditions: rate of application 0.3 Kg/Ha, rated after 12-17 days
[15] = test system: Johnsongrass (Sorghum halepense); experiment: Postemergence herbicidal activity, johnsongrass; conditions: rate of application 0.3 Kg/Ha, rated after 12-17 days
[16] = test system: morningglory (Ipomea lacunosa or Ipomea hederacea); experiment: Postemergence herbicidal activity, morningglory; conditions: rate of application 0.3 Kg/Ha, rated after 12-17 days
[17] = test system: wheat (Triticum aestivum var. Lew); experiment: Postemergence herbicidal activity, wheat; conditions: rate of application 0.3 Kg/Ha, rated after 12-17 days
[18] = test system: common chickweed (Stellaria media); experiment: Preemergence herbicidal activity, chickweed; conditions: Rate of Application 0.3 Kg/Ha, examined after 12-17 days
[19] = test system: common cocklebur (Xanthium strumarium L.); experiment: Preemergence herbicidal activity, cocklebur; conditions: Rate of Application 0.3 Kg/Ha, examined after 12-17 days

Structure (SMILES): Cc1cc2c(Cl)ccc(-n3c(=O)cc(C(F)(F)F)n(C)c3=O)c2o1 [Compound 221]
- Postemergence herbicidal activity (% control) CRN [1]: 60%
- Postemergence herbicidal activity (% control) SETVI [2]: 70%
- PREEMERGENCE HERBICIDAL ACTIVITY (% CONTROL) SORHA [3]: 95%
- PREEMERGENCE HERBICIDAL ACTIVITY (% CONTROL) CRN [4]: 85%
- Postemergence herbicidal activity (% control) XANPE [5]: 60%
- PREEMERGENCE HERBICIDAL ACTIVITY (% CONTROL) SOY [6]: 70%
- Postemergence herbicidal activity (% control) STEME [7]: 100%
- Postemergence herbicidal activity (% control) ABUTH [8]: 100%
- PREEMERGENCE HERBICIDAL ACTIVITY (% CONTROL) ABUTH [9]: 100%
- PREEMERGENCE HERBICIDAL ACTIVITY (% CONTROL) SETVI [10]: 100%
- Postemergence herbicidal activity (% control) ALOMY [11]: 40%
- PREEMERGENCE HERBICIDAL ACTIVITY (% CONTROL) IPOSS [12]: 100%
- PREEMERGENCE HERBICIDAL ACTIVITY (% CONTROL) WHT [13]: 60%
- Postemergence herbicidal activity (% control) SOY [14]: 95%
- Postemergence herbicidal activity (% control) SORHA [15]: 70%
- Postemergence herbicidal activity (% control) IPOSS [16]: 100%
- Postemergence herbicidal activity (% control) WHT [17]: 50%
- PREEMERGENCE HERBICIDAL ACTIVITY (% CONTROL) STEME [18]: 80%

Structure (SMILES): Cc1cc2c(Cl)cc(F)c(-n3c(=O)cc(C(F)(F)F)n(C)c3=O)c2o1 [Compound 222]
- Postemergence herbicidal activity (% control) CRN [1]: 90%
- Postemergence herbicidal activity (% control) SETVI [2]: 100%
- PREEMERGENCE HERBICIDAL ACTIVITY (% CONTROL) SORHA [3]: 100%
- PREEMERGENCE HERBICIDAL ACTIVITY (% CONTROL) CRN [4]: 90%
- Postemergence herbicidal activity (% control) XANPE [5]: 100%
- PREEMERGENCE HERBICIDAL ACTIVITY (% CONTROL) SOY [6]: 100%
- PREEMERGENCE HERBICIDAL ACTIVITY (% CONTROL) XANPE [19]: 100%
- Postemergence herbicidal activity (% control) STEME [7]: 100%
- Postemergence herbicidal activity (% control) ABUTH [8]: 100%
- PREEMERGENCE HERBICIDAL ACTIVITY (% CONTROL) ABUTH [9]: 100%
- PREEMERGENCE HERBICIDAL ACTIVITY (% CONTROL) SETVI [10]: 100%
- Postemergence herbicidal activity (% control) ALOMY [11]: 100%
- PREEMERGENCE HERBICIDAL ACTIVITY (% CONTROL) IPOSS [12]: 100%
- PREEMERGENCE HERBICIDAL ACTIVITY (% CONTROL) WHT [13]: 70%
- Postemergence herbicidal activity (% control) SOY [14]: 100%
- Postemergence herbicidal activity (% control) SORHA [15]: 100%
- Postemergence herbicidal activity (% control) IPOSS [16]: 100%
- Postemergence herbicidal activity (% control) WHT [17]: 70%
- PREEMERGENCE HERBICIDAL ACTIVITY (% CONTROL) STEME [18]: 100%

Structure (SMILES): Cn1c(C(F)(F)F)cc(=O)n(-c2ccc(Cl)c3cc(C=NO)oc23)c1=O [Compound 258]
- Postemergence herbicidal activity (% control) CRN [1]: 60%
- Postemergence herbicidal activity (% control) SETVI [2]: 60%
- PREEMERGENCE HERBICIDAL ACTIVITY (% CONTROL) SORHA [3]: 40%
- PREEMERGENCE HERBICIDAL ACTIVITY (% CONTROL) CRN [4]: 75%
- Postemergence herbicidal activity (% control) XANPE [5]: 50%
- PREEMERGENCE HERBICIDAL ACTIVITY (% CONTROL) SOY [6]: 30%
- PREEMERGENCE HERBICIDAL ACTIVITY (% CONTROL) XANPE [19]: 60%
- Postemergence herbicidal activity (% control) STEME [7]: 5%
- Postemergence herbicidal activity (% control) ABUTH [8]: 80%
- PREEMERGENCE HERBICIDAL ACTIVITY (% CONTROL) ABUTH [9]: 100%
- PREEMERGENCE HERBICIDAL ACTIVITY (% CONTROL) SETVI [10]: 40%
- Postemergence herbicidal activity (% control) ALOMY [11]: 30%
- PREEMERGENCE HERBICIDAL ACTIVITY (% CONTROL) IPOSS [12]: 60%
- PREEMERGENCE HERBICIDAL ACTIVITY (% CONTROL) WHT [13]: 30%
- Postemergence herbicidal activity (% control) SOY [14]: 80%
- Postemergence herbicidal activity (% control) SORHA [15]: 50%
- Postemergence herbicidal activity (% control) IPOSS [16]: 70%
- Postemergence herbicidal activity (% control) WHT [17]: 30%
- PREEMERGENCE HERBICIDAL ACTIVITY (% CONTROL) STEME [18]: 0%
